According to ChEMBL document CHEMBL1201862, “PubChem BioAssay data set” (2004):
The source made the active and inactive calls.

Columns and labels:
[1] = Luminescence Cell-Based Dose Response HTS to Identify Inhibitors of 5'UTR Stem-Loop Driven Prion Protein mRNA Translation in H4 Neuroglioblastoma Cells. [Related pubchem assays: 1827 (Project Summary), 1813 (Primary HTS)]; format: functional
[2] = alpha-synuclein stem-loop luciferase translation blockers – H4 neuroglioma cells, luminescence, confirmation (AID 1988); format: functional, cell-based
[3] = luciferase reporter signal suppression in cells – H4 neuroglioma cells, luminescence, dose response (AID 1990); format: functional, cell-based
Cytochrome P450 2C19 = Cytochrome P450 2C19 (Homo sapiens, UniProt P33261); assay: Cytochrome panel assay with activity outcomes. Panel member name: p450-cyp2c19 Compounds with AC50 equal or less than 10 uM are considered active; format: functional
Cytochrome P450 2C19, sequence (P33261 whole entry): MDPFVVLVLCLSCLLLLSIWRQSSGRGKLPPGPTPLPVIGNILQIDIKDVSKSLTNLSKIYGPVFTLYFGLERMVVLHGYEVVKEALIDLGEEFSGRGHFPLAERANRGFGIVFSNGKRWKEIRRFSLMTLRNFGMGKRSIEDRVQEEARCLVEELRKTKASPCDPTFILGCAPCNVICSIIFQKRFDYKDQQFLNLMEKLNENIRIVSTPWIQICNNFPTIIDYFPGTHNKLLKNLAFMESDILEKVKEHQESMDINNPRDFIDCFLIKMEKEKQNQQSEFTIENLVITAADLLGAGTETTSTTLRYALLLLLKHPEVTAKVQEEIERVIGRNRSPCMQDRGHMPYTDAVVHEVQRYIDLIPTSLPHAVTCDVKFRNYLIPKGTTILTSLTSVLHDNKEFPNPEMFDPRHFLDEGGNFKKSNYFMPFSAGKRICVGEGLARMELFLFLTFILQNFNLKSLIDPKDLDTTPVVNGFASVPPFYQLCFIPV

[4] = NIH3T3 cell viability loss – ATP luminescence, mouse fibroblasts, counter-screen, dose response (AID 2010); format: functional, cell-based;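 note: cells exposed to compound for about 90 hours before reading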
[5] = Trypanosoma cruzi growth suppression in host cells – NIH3T3 host cells, beta-gal luminescence, confirmation (AID 2044); format: functional, cell-based;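 note: intracellular parasites grown in NIH/3T3 mouse fibroblasts as host cells; luminescent beta-galactosidase reporter signal from transgenic T. cruzi replicating inside host cells; inhibitors lower the luminescence signal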
[6] = biological target: T1, Corticotropin-releasing factor receptor 2/Corticotropin-releasing factor-binding protein (Homo sapiens, UniProt P24387+Q13324); assay: activators of CRF receptor 2 with binding protein – uHTS hits, confirmation (AID 602473); format: functional; settings: read-out: EC50_Mean
T1 sequence (Q13324 whole entry): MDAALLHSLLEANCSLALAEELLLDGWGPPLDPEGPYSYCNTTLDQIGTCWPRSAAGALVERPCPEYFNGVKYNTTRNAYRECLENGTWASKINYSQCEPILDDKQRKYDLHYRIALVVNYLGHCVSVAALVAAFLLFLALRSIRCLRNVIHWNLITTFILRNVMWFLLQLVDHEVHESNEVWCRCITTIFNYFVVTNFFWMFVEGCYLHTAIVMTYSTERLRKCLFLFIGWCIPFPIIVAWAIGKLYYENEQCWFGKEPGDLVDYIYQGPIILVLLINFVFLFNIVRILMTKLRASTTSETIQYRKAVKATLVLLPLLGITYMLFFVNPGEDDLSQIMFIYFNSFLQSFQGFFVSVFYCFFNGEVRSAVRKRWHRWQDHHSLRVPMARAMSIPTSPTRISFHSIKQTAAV
T1 sequence (P24387 whole entry): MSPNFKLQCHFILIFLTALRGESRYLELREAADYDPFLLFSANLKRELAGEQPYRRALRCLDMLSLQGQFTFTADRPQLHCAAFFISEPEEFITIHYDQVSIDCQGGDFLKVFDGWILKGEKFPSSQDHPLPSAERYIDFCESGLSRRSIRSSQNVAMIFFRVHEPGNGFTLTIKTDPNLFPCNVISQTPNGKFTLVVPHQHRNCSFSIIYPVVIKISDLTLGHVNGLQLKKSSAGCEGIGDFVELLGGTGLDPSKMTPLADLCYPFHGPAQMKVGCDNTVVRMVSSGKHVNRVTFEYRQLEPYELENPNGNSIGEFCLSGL

SMILES: Cc1ccc2c(c1)N1C(=O)c3ccccc3C1C1=C(O)CC(C)(C)CC1=N2 (stereo not given)
- EC50 [1]: 18.1 µM (active)
- EC50 [2]: > 120 µM (not active)
- EC50 [3]: > 120 µM (not active)

SMILES: O=S(=O)(c1ccccc1)N1CCC2(CC1)OCCO2
- EC50 [1]: 6.97 µM (active)
- EC50 [2]: > 120 µM (not active)
- EC50 [3]: > 120 µM (not active)

SMILES: Nc1nc(NCCCN2CCOCC2)nc(Nc2ccccc2)c1[N+](=O)[O-]
- EC50 [1]: 19 µM (active)
- EC50 [2]: > 120 µM (not active)
- EC50 [3]: 40.7 µM (active)

SMILES: CC(C)NC(=O)c1ccccc1NC(=O)/C=C/c1cccc([N+](=O)[O-])c1
- EC50 [1]: 11.3 µM (active)
- EC50 [2]: 9.29 µM (active)
- EC50 [3]: 8.64 µM (active)

SMILES: CC(C)NC(=O)N1CCC2(CC1)CCN(S(C)(=O)=O)CC2
- AC50 (Cytochrome P450 2C19; read-out: AC50): 39.8 µM (inconclusive)

SMILES: Cc1c(C(=O)NCC2COc3ccccc3O2)oc2ccc(S(=O)(=O)N3CC(C)CC(C)C3)cc12 (stereo not given)
- EC50 [4]: > 60 µM (not active)
- EC50 [5]: 1.79 µM (active)

SMILES: Cc1cccc(NC(=O)CSc2nnc(C)c(=O)n2N)c1C
- EC50 [1]: > 120 µM (not active)
- EC50 [2]: > 120 µM (not active)
- EC50 [3]: > 120 µM (not active)

SMILES: Cc1ccc(Sc2nc(-c3ccccc3)ccc2C#N)cc1
- AC50 (Cytochrome P450 2C19; read-out: AC50): 0.631 µM (inconclusive)

SMILES: NC(=NOC(=O)c1cc([N+](=O)[O-])ccc1Cl)c1cccnc1
- EC50 [1]: > 120 µM (not active)
- EC50 [2]: > 120 µM (not active)
- EC50 [3]: > 120 µM (not active)

SMILES: CC(=O)NCCC(=O)Nc1cc(S(=O)(=O)N2CCCCC2)ccc1N1CCN(C)CC1
- EC50 [4]: > 30 µM (not active)
- EC50 [5]: 0.231 µM (active)

SMILES: CN1CCN(CC2(O)CCN(S(=O)(=O)c3ccc(Cl)cc3)CC2)CC1
- EC50 [4]: > 60 µM (not active)
- EC50 [5]: 1.11 µM (active)

SMILES: CC1(C)Cc2c(ccc3ccccc23)C(c2cc3ccccc3oc2=O)=N1
- EC50 [1]: 21.5 µM (active)
- EC50 [2]: > 120 µM (not active)
- EC50 [3]: 11.1 µM (active)

SMILES: Cn1c(=N)n(CC(=O)c2ccc(Cl)c(Cl)c2)c2ccccc21
- EC50 [1]: 13.5 µM (active)
- EC50 [2]: 9.54 µM (active)
- EC50 [3]: 6.07 µM (inconclusive)

SMILES: Cc1nn(Cc2ccccc2Cl)c(C)c1C(=O)NC1CCCc2ccccc21 (stereo not given)
- EC50 [1]: 103 µM (active)
- EC50 [2]: 58 µM (active)
- EC50 [3]: 17.1 µM (active)

SMILES: Cc1onc(-c2ccccc2Cl)c1C(=O)N(Cc1ccc(N(C)C)cc1)C(C)C
- EC50 [1]: > 120 µM (not active)
- EC50 [2]: > 120 µM (not active)
- EC50 [3]: 22.5 µM (active)

SMILES: CCN(Cc1ccc(O)cc1)CC1CCCN(CCc2cccc(F)c2)C1 (stereo not given)
- EC50 [4]: 40.3 µM (active)
- EC50 [5]: 0.69 µM (active)

SMILES: CCC(NCCC1=CCCCC1)=C1C(=O)NC(=O)NC1=O
- EC50 [1]: > 120 µM (not active)
- EC50 [2]: > 120 µM (not active)
- EC50 [3]: > 120 µM (not active)

SMILES: Cc1ccc(C)c(NC(=O)c2ccccc2O)c1
- EC50 [6]: > 53 µM (inactive)

SMILES: O=C(CCCCCn1c(=S)[nH]c2ccc(N3CCOCC3)cc2c1=O)NC1CCN(Cc2ccccc2)CC1
- EC50 [4]: > 60 µM (not active)
- EC50 [5]: 0.595 µM (active)

SMILES: CCN(CC)CCN(C(=O)c1ccc(S(=O)(=O)N2CCCCC2)cc1)c1nc2cc3c(cc2s1)OCO3
- EC50 [4]: > 60 µM (not active)
- EC50 [5]: 0.213 µM (active)

SMILES: COc1cc(CNC(=O)c2nc(Cn3nc(C)c(Br)c3C)no2)cc(OC)c1
- EC50 [1]: > 120 µM (not active)
- EC50 [2]: 42.7 µM (active)
- EC50 [3]: > 120 µM (not active)

SMILES: COc1cc(NC(=O)CCN2CCN(C/C=C/c3ccccc3)CC2)cc(OC)c1
- EC50 [4]: > 60 µM (not active)
- EC50 [5]: 0.918 µM (active)

SMILES: CCC/C=C(\CCC)C(NC(=O)C(C)(C)C)c1ccc(C(=O)OC)cc1 (stereo not given)
- AC50 (Cytochrome P450 2C19; read-out: AC50): 39.8 µM (inconclusive)

SMILES: O=C(CCc1ccc(S(=O)(=O)NCc2ccccc2)cc1)N1CCN(Cc2ccc3c(c2)OCO3)CC1
- EC50 [4]: > 30 µM (not active)
- EC50 [5]: 0.897 µM (active)

SMILES: O=C(OCc1ccccc1)c1cn(-c2ccccc2)nc1-c1ccncc1
- EC50 [4]: 33.5 µM (active)
- EC50 [5]: 1.14 µM (active)

SMILES: COc1cccc(-c2nc(CS(=O)(=O)CC(=O)NCCc3ccc(C)cc3)c(C)o2)c1
- EC50 [1]: > 120 µM (not active)
- EC50 [2]: > 120 µM (not active)
- EC50 [3]: > 120 µM (not active)

SMILES: NC(S)=Nc1cccc2[nH]ccc12
- EC50 [4]: > 30 µM (not active)

SMILES: CCc1ccc(-c2nc(CSCC(=O)N3CCN(c4ccccn4)CC3)c(C)o2)cc1
- EC50 [1]: 15 µM (active)
- EC50 [2]: 12 µM (active)
- EC50 [3]: 8.61 µM (active)

SMILES: COC(=O)c1sc(NC(=S)NC(=O)c2cccc(C)c2)nc1C
- EC50 [6]: 9.05 µM (active)

SMILES: Cc1ccccc1N1C(=O)NC(=O)/C(=C\c2ccc3c(c2)CCCN3Cc2ccccc2)C1=O
- EC50 [6]: 14.2 µM (active)

SMILES: Cc1ccc(-n2nnc(-c3nccs3)n2)cc1
- EC50 [1]: 0.985 µM (active)
- EC50 [2]: 1.41 µM (active)
- EC50 [3]: 4.02 µM (active)

SMILES: CC(C)c1ccc(C(O)P(=O)(OC2CCCCC2)OC2CCCCC2)cc1 (stereo not given)
- EC50 [1]: 19.2 µM (active)
- EC50 [2]: > 120 µM (not active)
- EC50 [3]: > 120 µM (not active)

SMILES: Cc1cc(C)c(S(=O)(=O)N2CCN(c3ccc([N+](=O)[O-])c(-n4nc(C)cc4C)c3)CC2)c(C)c1
- EC50 [4]: > 60 µM (not active)
- EC50 [5]: 1.83 µM (active)

SMILES: CCc1c(C#N)c(SCCC(=O)Nc2ccc(F)cc2)nc2c1C(=O)CC(C)(C)C2
- EC50 [4]: > 60 µM (not active)
- EC50 [5]: 0.996 µM (active)

SMILES: O=C(Nc1ccc(N2CCCCC2)cc1)c1cc([N+](=O)[O-])cc([N+](=O)[O-])c1
- EC50 [4]: > 60 µM (not active)
- EC50 [5]: 0.411 µM (active)

SMILES: COc1ccc(-n2c(S)nnc2CNC(=O)c2cc(OC)c(OC)c(OC)c2)cc1
- AC50 (Cytochrome P450 2C19): inconclusive

SMILES: COc1ccc(N(CC(=O)NN=C2CCCC2)S(=O)(=O)c2ccccc2)cc1Cl
- EC50 [6]: 4.37 µM (active)

SMILES: CN1c2ccccc2Oc2c(c(=O)n(C)c(=O)n2C)C1c1cccc([N+](=O)[O-])c1 (stereo not given)
- AC50 (Cytochrome P450 2C19; read-out: AC50): 14.1 µM (inconclusive)

SMILES: CCOc1ccc(NS(=O)(=O)c2ccc(C(=O)NCC3(N4CCCCC4)CCCCC3)cc2)cc1
- EC50 [6]: 6.45 µM (active)

SMILES: O=C(O)c1ccccc1N/N=C\c1ccnc2ccccc12
- EC50 [1]: 11.1 µM (active)
- EC50 [2]: 7.78 µM (active)

SMILES: C#CCn1/c(=N/C(=O)c2ccc(S(=O)(=O)N3CCCc4ccccc43)cc2)sc2cc(S(N)(=O)=O)ccc21
- EC50 [4]: > 60 µM (not active)
- EC50 [5]: 0.819 µM (active)

SMILES: Cc1ccc2sc(N3CCN(C(=O)c4ccc([N+](=O)[O-])o4)CC3)nc2c1C
- EC50 [4]: > 30 µM (not active)
- EC50 [5]: 0.119 µM (active)

SMILES: O=c1c(-c2ccc(O)cc2)coc2cc(O)cc(O)c12 [GENISTEIN]
- AC50 (Cytochrome P450 2C19; read-out: AC50): 10 µM (inconclusive)
